Source: patent publication US20240058464A1 (Fortis Therapeutics, Inc., priority 2021, published 2024)

Assays:
[1] = tested on: CD46 expression; experiment: CD46 expression by RNA-sequencing in paired tumor biopsies before and after therapy; conditions: paired biopsies; for CD46 expression, Post-Treatment Biopsy / CD46 expression, Pre-Treatment Biopsy: RNA-seq log2-transformed counts;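 on all read-outs here: FFPE human tumor biopsies, exome-capture RNA-seq, reads aligned to GRCh37, counts normalized for GC content, length and depth, summed per gene, log2-transformed, samples paired before versus after therapy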
Experimental: Gene expression was determined by RNA-sequencing from formalin-fixed, paraffin-embedded (FFPE) tumor samples using an exome capture-based protocol. Briefly, total nucleic acid was extracted from FFPE solid tumor samples. The RNA sample was treated with DNAse and reverse transcribed. cDNA was captured with a custom probe set targeting the human exome. A library was prepared from the captured cDNA and sequenced on the Illumina platform. Sequence read were aligned to GRCh37 using Kallisto and normalized to quantify gene expression. Specifically, transcript counts were corrected for GC content and length using quantile normalization and adjusted for sequencing depth via a size factor method. Normalized counts in protein coding transcripts covered by the exome panel were then summed to obtain gene-level counts. Subsequent expression analyses were performed on log2-transformed counts.

[2] = tested on: CD46 expression; experiment: CD46 expression by RNA-sequencing in unpaired pre-treatment and post-treatment tumor biopsies; assay type: in vivo, human; conditions: for CD46 expression Post: post-treatment biopsies
[3] = Breast Cancer, Post minus Pre, unpaired biopsies, log2-transformed counts
[4] = Breast Cancer, post- vs pre-treatment unpaired biopsies
[5] = Breast Cancer, unpaired, RNA-seq log2-transformed normalized counts
[6] = Non-Small Cell Lung Cancer, Post minus Pre, unpaired biopsies, log2-transformed counts
[7] = Non-Small Cell Lung Cancer, post- vs pre-treatment unpaired biopsies
[8] = Non-Small Cell Lung Cancer, unpaired, RNA-seq log2-transformed normalized counts
[9] = Ovarian Cancer, Post minus Pre, unpaired biopsies, log2-transformed counts
[10] = Ovarian Cancer, post- vs pre-treatment unpaired biopsies
[11] = Ovarian Cancer, unpaired, RNA-seq log2-transformed normalized counts
[12] = Sarcoma, Post minus Pre, unpaired biopsies, log2-transformed counts
[13] = Sarcoma, post- vs pre-treatment unpaired biopsies
[14] = Sarcoma, unpaired, RNA-seq log2-transformed normalized counts

N.N.[Cl][Pt][Cl] [cisplatin]
CD46 expression diff (post minus pre) ([1]; Biliary Cancer): 0.15 | Percent Change in CD46 expression ([1]; Biliary Cancer): 2.6% | CD46 expression, Post-Treatment Biopsy ([1]; Biliary Cancer): 5.97 | CD46 expression, Pre-Treatment Biopsy ([1]; Biliary Cancer): 5.82 | CD46 expression diff (post minus pre) ([1]; Bladder Cancer): 0.10 | Percent Change in CD46 expression ([1]; Bladder Cancer): 1.6% | CD46 expression, Pre-Treatment Biopsy ([1]; Bladder Cancer): 6.15 | CD46 expression diff (post minus pre) ([1]; Non-Small Cell Lung Cancer): −0.45 | Percent Change in CD46 expression ([1]; Non-Small Cell Lung Cancer): −7.2% | CD46 expression, Post-Treatment Biopsy ([1]; Non-Small Cell Lung Cancer): 5.85 | CD46 expression diff ([2]; Biliary Cancer, Post minus Pre, unpaired biopsies, log2-transformed counts): −0.06 | CD46 expression Percentage change ([2]; Biliary Cancer, post- vs pre-treatment unpaired biopsies): −1.0% | CD46 expression Post ([2]; Biliary Cancer, unpaired, RNA-seq log2-transformed normalized counts): 5.76 | CD46 expression diff ([2]; Bladder Cancer, post minus pre, unpaired biopsies): −0.19 | CD46 expression Percentage change ([2]; Bladder Cancer, post vs pre, unpaired biopsies): −3.1% | CD46 expression Post ([2]; Bladder Cancer, log2-transformed RNA-seq counts): 6.00 | CD46 expression Pre ([2]; Bladder Cancer, pre-treatment biopsies, log2-transformed RNA-seq counts): 6.19 | CD46 expression diff [2, 3]: 0.02 | CD46 expression Percentage change [2, 4]: 0.3% | CD46 expression Post [2, 5]: 5.98 | CD46 expression diff ([2]; Endometrial Cancer, Post minus Pre, unpaired biopsies, log2-transformed counts): 0.26 | CD46 expression Percentage change ([2]; Endometrial Cancer, post- vs pre-treatment unpaired biopsies): 4.6% | CD46 expression Post ([2]; Endometrial Cancer, unpaired, RNA-seq log2-transformed normalized counts): 5.99 | CD46 expression diff ([2]; Head and Neck Squamous Cell Carcinoma, Post minus Pre, unpaired biopsies, log2-transformed counts): 0.13 | CD46 expression Percentage change ([2]; Head and Neck Squamous Cell Carcinoma, post- vs pre-treatment unpaired biopsies): 2.4% | CD46 expression Post ([2]; Head and Neck Squamous Cell Carcinoma, unpaired, RNA-seq log2-transformed normalized counts): 5.69 | CD46 expression diff [2, 6]: −0.05 | CD46 expression Percentage change [2, 7]: −0.8% | CD46 expression Post [2, 8]: 6.11 | CD46 expression diff [2, 9]: 0.03 | CD46 expression Percentage change [2, 10]: 0.6% | CD46 expression Post [2, 11]: 5.79 | CD46 expression diff ([2]; Pancreatic Cancer, Post minus Pre, unpaired biopsies, log2-transformed counts): 0.18 | CD46 expression Percentage change ([2]; Pancreatic Cancer, post- vs pre-treatment unpaired biopsies): 3.1% | CD46 expression Post ([2]; Pancreatic Cancer, unpaired, RNA-seq log2-transformed normalized counts): 6.16 | CD46 expression diff [2, 12]: 0.19 | CD46 expression Percentage change [2, 13]: 3.9% | CD46 expression Post [2, 14]: 5.02 | CD46 expression after treatment vs pre-treatment ([2]; head and neck squamous cell carcinoma, unpaired biopsies, FIG. 7): significantly higher

O=P1(N(CCCl)CCCl)NCCCO1 (centres unmarked) [cyclophosphamide]
CD46 expression diff (post minus pre) ([1]; Breast Cancer): 0.01 | Percent Change in CD46 expression ([1]; Breast Cancer): 0.2% | CD46 expression, Post-Treatment Biopsy ([1]; Breast Cancer): 6.22 | CD46 expression diff [2, 3]: −0.03 | CD46 expression Percentage change [2, 4]: −0.4% | CD46 expression Post [2, 5]: 6.08 | CD46 expression diff [2, 9]: 0.11 | CD46 expression Percentage change [2, 10]: 1.9% | CD46 expression Post [2, 11]: 5.76 | CD46 expression diff [2, 12]: 0.06 | CD46 expression Percentage change [2, 13]: 1.2% | CD46 expression Post [2, 14]: 5.12

C[C@@H]1C[C@H]2[C@@H]3CCC4=CC(=O)C=C[C@]4(C)[C@@]3(F)[C@@H](O)C[C@]2(C)[C@@]1(O)C(=O)CO [dexamethasone]
CD46 expression diff (post minus pre) ([1]; Colorectal Cancer): −0.19 | Percent Change in CD46 expression ([1]; Colorectal Cancer): −3.0% | CD46 expression, Post-Treatment Biopsy ([1]; Colorectal Cancer): 5.96 | CD46 expression diff [2, 3]: −0.07 | CD46 expression Percentage change [2, 4]: −1.1% | CD46 expression Post [2, 5]: 6.20 | CD46 expression diff ([2]; Colorectal Cancer, Post minus Pre, unpaired biopsies, log2-transformed counts): 0.06 | CD46 expression Percentage change ([2]; Colorectal Cancer, post- vs pre-treatment unpaired biopsies): 1.0% | CD46 expression Post ([2]; Colorectal Cancer, unpaired, RNA-seq log2-transformed normalized counts): 6.44 | CD46 expression diff [2, 6]: 0.00 | CD46 expression Percentage change [2, 7]: 0.0% | CD46 expression Post [2, 8]: 6.14 | CD46 expression diff ([2]; Ovarian Cancer, post minus pre, unpaired biopsies): −0.22 | CD46 expression Percentage change ([2]; Ovarian Cancer, post vs pre, unpaired biopsies): −3.9% | CD46 expression Post ([2]; Ovarian Cancer, log2-transformed RNA-seq counts): 5.48 | CD46 expression diff ([2]; Pancreatic Cancer, post minus pre, unpaired biopsies): −0.27 | CD46 expression Percentage change ([2]; Pancreatic Cancer, post vs pre, unpaired biopsies): −4.5% | CD46 expression Post ([2]; Pancreatic Cancer, log2-transformed RNA-seq counts): 5.75

CC(=O)O[C@@]12CO[C@@H]1C[C@H](O)[C@@]1(C)C(=O)[C@H](O)C3=C(C)[C@@H](OC(=O)[C@H](O)[C@@H](NC(=O)OC(C)(C)C)c4ccccc4)C[C@@](O)([C@@H](OC(=O)c4ccccc4)[C@H]21)C3(C)C [docetaxel]
CD46 expression diff (post minus pre) ([1]; Breast Cancer): 0.22 | Percent Change in CD46 expression ([1]; Breast Cancer): 3.7% | CD46 expression, Post-Treatment Biopsy ([1]; Breast Cancer): 6.19 | CD46 expression diff (post minus pre) ([1]; Prostate Cancer): −0.03 | Percent Change in CD46 expression ([1]; Prostate Cancer): −0.4% | CD46 expression, Post-Treatment Biopsy ([1]; Prostate Cancer): 5.76 | CD46 expression diff [2, 3]: 0.04 | CD46 expression Percentage change [2, 4]: 0.7% | CD46 expression Post [2, 5]: 6.23 | CD46 expression diff ([2]; Gastric Cancer, post minus pre, unpaired biopsies): −0.17 | CD46 expression Percentage change ([2]; Gastric Cancer, post vs pre, unpaired biopsies): −3.0% | CD46 expression Post ([2]; Gastric Cancer, log2-transformed RNA-seq counts): 5.59 | CD46 expression diff [2, 6]: 0.02 | CD46 expression Percentage change [2, 7]: 0.3% | CD46 expression diff [2, 9]: 0.12 | CD46 expression Percentage change [2, 10]: 2.1% | CD46 expression Post [2, 11]: 5.88 | CD46 expression diff ([2]; Prostate Cancer, Post minus Pre, unpaired biopsies, log2-transformed counts): −0.14 | CD46 expression Percentage change ([2]; Prostate Cancer, post- vs pre-treatment unpaired biopsies): −2.2% | CD46 expression Post ([2]; Prostate Cancer, unpaired, RNA-seq log2-transformed normalized counts): 6.02 | CD46 expression diff ([2]; Sarcoma, post minus pre, unpaired biopsies): −0.14 | CD46 expression Percentage change ([2]; Sarcoma, post vs pre, unpaired biopsies): −2.8% | CD46 expression Post ([2]; Sarcoma, log2-transformed RNA-seq counts): 5.00
